Data published in patent US4948786A, “Composition for treatment of ischemic disorder in organs” (Takeda Chemical Industries, Ltd., priority 1988, dated 1990).
Where a name gives a salt, the structure may show the parent alone.

How the values were obtained:
[1] = tested on: Lipid Peroxidation in Rat Brain Homogenate; settings: for Inhibitory Effect (%): final concentration 10^-4 M, 5% homogenate, pH 7.4, 37° C., 1 hour, vs DMSO reference, malonic dialdehyde by TBA method
[2] = tested on: ischemic-reperfused rat heart; assay: Reducing activity against the size of infarction in ischemic-reperfused rat heart; format: in vivo, rat (Wistar male); settings: i.v.; for Size of Infarction (% of left ventrical) / Inhibition (% of Control): 30 minutes after ligation; for Size of Infarction (% of left ventrical): mean ± SEM, control 35.0 ± 2.9
Protocol: Reducing activity of α-EPC-Na(DL) against the size of infarction in ischemic-reperfused rat heart:
Wistar male rats (body weight […]) were anesthetized with pentobarbital and subjected to thoracetomy. The left anterior descending coronary artery (LAD) was ligated at its origin for 1 hour. Then, the ligation was released to allow reperfusion. After 30 to 60 minutes reperfusion, the chest was closed and the animals (rats) maintained in conscious state. After 24 hours, the animals (rats) were reanesthetized, and then the heart was excised. The left ventricles were cut parallel to the atrioventricular sulcus into slices. The slices were stained at 37° C. for 15 minutes using triphenyltetrazolium chloride, and the size of infarction was weighed.
α-EPC-Na dissolved in saline solution was administered into the femoral vein at doses of 0.3, 1 and 5 mg/kg 30 minutes after the ligation. For the control group, only saline solution was administered.

Acute toxicity (LD50) = settings: in vivo, rat

CC(C)CCCC(C)CCCC(C)CCCC1(C)CCc2cc(OP(=O)(O)OC3=C(O)[C@@H]([C@@H](O)CO)OC3=O)ccc2O1 (mixture of isomers) [TPC-Na(DL), L-Ascorbic acid DL-tocoryl phosphate diester sodium salt]
Inhibitory Effect (%) [1]: 35.7 ± 2.6%

Cc1c(C)c2c(c(C)c1OP(=O)(O)OC1=C(O)[C@@H]([C@@H](O)CO)OC1=O)CCC(C)(CCCC(C)CCCC(C)CCCC(C)C)O2 (mixture of isomers) [α-EPC-Na(DL), L-Ascorbic acid, DL-α-tocopheryl phosphate diester sodium salt]
Size of Infarction (% of left ventrical) ([2]; 0.3 mg/kg): 32.4 ± 4.3 % of left ventrical
Inhibition (% of Control) ([2]; 1.0 mg/kg): -22.3 % of Control
Size of Infarction (% of left ventrical) ([2]; 1.0 mg/kg): 27.2 ± 2.8 % of left ventrical
size of myocardial infarction, reduced to ([2]; 5 mg/kg): about 50%
Inhibition (% of Control) ([2]; 5.0 mg/kg): -47.7 % of Control
Size of Infarction (% of left ventrical) ([2]; 5.0 mg/kg): 18.3 ± 1.1 % of left ventrical
reduction of the size of myocardial infarction (in words) ([2]; 0.3, 1 and 5 mg/kg): reduced the size of myocardial infarction dose-dependently
LD50 (Acute toxicity (LD50); sc, subcutaneous administration): 737 mg/kg
LD50 (Acute toxicity (LD50); oral administration): > 10000 mg/kg
Inhibitory Effect (%) [1]: 61.8 ± 38.1%

Cc1cc(OP(=O)(O)OC2=C(O)[C@@H]([C@@H](O)CO)OC2=O)c(C)c2c1OC(C)(CCCC(C)CCCC(C)CCCC(C)C)CC2 (mixture of isomers) [β-EPC-K(DL), L-Ascorbic acid DL-β-tocopheryl phosphate diester potassium salt]
Inhibitory Effect (%) [1]: 58.9 ± 19.4%

Cc1c(C)c2c(c(C)c1O)CCC(C)(CCCC(C)CCCC(C)CCCC(C)C)O2 (racemic) [DL-α-tocopherol, reference compound]
Inhibitory Effect (%) [1]: 50.8 ± 18.5%

O=C1O[C@H]([C@@H](O)CO)C(O)=C1O [L-ascorbic acid, reference compound]
inhibition of lipid peroxidation (in words) ([1]; 10^-4 M, rat brain homogenate): did not inhibit lipid peroxidation
Inhibitory Effect (%) [1]: 1.6 ± 15.0%

Cc1c(OP(=O)(O)OC2=C(O)[C@@H]([C@@H](O)CO)OC2=O)cc2c(c1C)O[C@](C)(CCC[C@H](C)CCC[C@H](C)CCCC(C)C)CC2 [γ-EPC-K(D), L-Ascorbic acid D-γ-tocopheryl phosphate diester potassium salt]
Inhibitory Effect (%) [1]: 62.0 ± 8.2%

Cc1cc(OP(=O)(O)OC2=C(O)[C@@H]([C@@H](O)CO)OC2=O)cc2c1O[C@](C)(CCC[C@H](C)CCC[C@H](C)CCCC(C)C)CC2 [δ-EPC-K(D), L-ascorbic acid D-δ-tocopheryl phosphate diester]
Inhibitory Effect (%) [1]: 38.1 ± 8.3%
